Data set [1] can be described thus: In vivo pharmacokinetic studies in rats (intragastric and intravenous). More on the design: species or system SD rats. Particulars: rat, plasma, po; male SD rats, 20 mg/kg intragastric, dosage normalized, calculated according to AUC0-t. The protocol:
(§1) Intragastric Administration Three healthy male SD rats having body weights of 200 g to 250 g were administered with a specimen drug with a dosage of 20 mg/kg and a volume of 10 ml/kg. The rats were fasted for 12 hours before administration and had the freedom to drink water. The venous blood with a volume of 0.3 ml was obtained from the retrobulbar venous plexus of the rats at 0.25 h, 0.5 h, 1.0 h, 2.0 h, 3.0 h, 4.0 h, 5.0 h, 7.0 h, 9.0 h and 24 h after the administration, put in a heparinized tube, and centrifuged for 10 minutes at 3500 rpm to separate the plasma, which was stored at −20° C. to be tested.
as §1, with “Intravenous Injection: Three healthy” for “Intragastric Administration Three healthy”, “dosage of 10 mg/kg and” for “dosage of 20 mg/kg and”, “volume of 5.0 ml/kg. The” for “volume of 10 ml/kg. The”, “rats at 5 min, 15 min, 0.5 h,” for “rats at 0.25 h, 0.5 h,”, “heparinized tube, centrifuged for” for “heparinized tube, and centrifuged for”

The next data set can be described thus: in vitro. The class given is cell-based. To be noted: human. The protocol:
The anti-HCV activity assay was performed by using Huh7.5.1 cells (donated by WUHAN INSTITUTE of VIROLOGY, CHINESE ACADEMY OF SCIENCES) infected by HCV (J399E) inserted with enhanced green fluorescent protein (EGFP). The variation of the green fluorescence intensity was recorded on a microplate reader and cytotoxicity was measured at the same time, so as to evaluate the influence of the compound on the replication activity of HCV.
(§2) Huh7.5.1 cells (10% FBS, DMEM) at the concentration of 10^5 cells/ml were inoculated on a 96-well plate (Costar 3904) with 100 μl per well. 24 hours later, the supernatant of culture was sucked out, and 50 μl of virus supernatant with MOI=0.1 was added. 8 hours later, 50 μl of the testing drug was added and 100 μl of culture medium was supplemented. After incubation for 72 hours, the supernatant was sucked out, and read on a fluorescent microplate reader (Ex=488 nm, Em=516 nm). Then each well was added with 20 μl of MTT (5 mg/ml) and additional 50 μl of culture medium. 4 hours later, 100 μl of MTT lysis solution was added. 6 hours later, reading was performed at a wavelength of 570 nm.

A further data set concerns HCV (J399E). The experiment in a line: microbe, parasite or virus in culture. The class given is cell-based, Hepatitis C Virus. To be noted: for pIC50: Hepatitis C virus, Huh-7.5.1, 72 h, read-out: IC50 (concentration at which 50% of the replication of HCV was inhibited); for SI (bioactivity selective index): anti-HCV, Huh7.5.1 cells. As for the experimental part: The variation of the green fluorescence intensity was recorded on a microplate reader and cytotoxicity was measured at the same time, so as to evaluate the influence of the compound on the replication activity of HCV.
Compounds to be tested were dissolved in DMSO to prepare a stock solution before the test. Upon using, the stock solution was diluted to a desired concentration with DMEM (Dulbecco's Modified Eagle Media, purchased from GibcoBRL company (Life Technologies, Grand Island, N.Y., USA)) containing 10% FBS (fetal bovine serum, purchased from Hyclone company (Logan, Utah, USA)).
Positive control: ribavirin (purchased from Sigma/Aldrich). It was dissolved in DMSO to prepare a stock solution and stored at −20° C. before use, and diluted to a desired concentration upon using.
as §2

The test system of the next data set is HBV. The experiment in a line: Anti-HBV activity assay: HBV-DNA replication in HepG2.2.15 cells, fluorescent quantitation PCR of culture supernatant. The class given is cell-based, Hepatitis B Virus. Particulars: for pIC50: Hepatitis B virus, HBV-DNA in supernatant on the eighth day, read-out: IC50 (concentration at which 50% of the replication of HBV was inhibited); for SI (bioactivity selective index): anti-HBV. The protocol: (§3) The anti-HBV activity assay of a specimen compound was performed in HepG2.2.15 cells stably transformed with the whole genome of HBV, including the determination of the cytotoxicity of the specimen compound (CC50) and the effect of the specimen compound on the replication level of HBV-DNA (IC50).
(§4) The Human hepatoma carcinoma cell HepG2.2.15 cell line stably transformed with the whole genome of HBV can stably secrete hepatitis B virosomes (containing DNA) in the supernatant of culture during culture. Both the antiviral activity and the cytotoxicity of the specimen drugs may be determined by detecting the amount of virus DNA secreted into the supernatant of culture by the cells under the intervention of an antiviral drug, in reference to the amount in control group that is the absence of the antiviral drug. A real-time fluorescent quantitation PCR assay was adopted to determine the concentration of a specimen drug at which 50% of the replication of HBV-DNA was inhibited (IC50), and a MTT assay was adopted to determine the concentration of a specimen drug at which 50% cytotoxicity occurs (CC50).
The specimen drug was prepared into a solution having a concentration (400 μM) desired for the experiment before use. Six diluted concentrations were tested for each specimen drug. The clinical anti-hepatitis B virus drug Lamivudine was used as the positive control in experiment so as to determine whether the reaction is normal or not in each experiment.
(§5) HepG2.2.15 cells were inoculated on a 96-well plate at 5×10^5 cells/ml. On the second day, the specimen drug was added. After the culture medium and the specimen drug having the same concentration as above were replaced periodically, on the eighth day, the supernatant of culture was collected to be tested. To the cells on the 96-well plate, MTT (5 mg/ml) is added. 4 hours later, MTT lysis solution was added (100 μl/well). The next day, OD570 was read on a microplate reader. The cytotoxicity of the specimen drug on HepG2.2.15 cells, the influence of specimen drug on cell growth, and the concentration of specimen drug at which 50% of cells were killed (CC50) were calculated in accordance with the OD value.
A proper amount of the supernatant of culture was added into an isovolumic virus extract and mixed uniformly. The resulted mixture was boiled, and then centrifuged for 5 minutes at 10,000 rpm at room temperature. A proper amount of the obtained supernatant was used to perform PCR amplification, and meanwhile four standard samples of HBV-DNA were set up to make a standard curve. The inhibition of each specimen drug at various concentrations against the replication of HBV-DNA was calculated according to the detected replication value of the viral DNA, and then the half inhibition of the specimen drug was calculated to obtain its IC50.

Data set [2] is described as follows: Cytotoxicity on HepG2.2.15 cells (MTT assay). To be noted: human, read-out: CC50 (concentration at which 50% of cells was killed). The class given is cell-based, Human. As for the experimental part:
as §3, §4, §5
In general terms: Tetrazolium dyes change colour on reduction, which living cells bring about.

The structures appear in SMILES notation. pIC50: −log10 of the molar value.

As a reminder, the bioavailability is the share of a dose that reaches the circulation, judged against a reference dose that is usually intravenous.

Turning to `CC(C)=Cc1sc(-c2nccs2)nc1C(=O)NCc1ccc(F)cc1` [Compound 373, N-(p-fluorobenzyl)-5-[1-(2-methylpropenyl)]-2′,2-bisthiazole-4-formamide], the bioavailability in data set [1] is 6.9%. Moreover, the CC50 at 72 h in the data set “in vitro” was determined as 85 µM. In the data set on HCV (J399E), the pIC50 is 5.24 and the “SI (bioactivity selective index)” value worked out at 14.9. In addition, in the data set on HBV, the pIC50 was 6.05 and the “SI (bioactivity selective index)” value is greater than 111.1. Also, the CC50 at 6 days in data set [2] is greater than 100 µM.
In the case of `C/C(=C\c1sc(-c2nccs2)nc1C(=O)NCc1ccc(F)cc1)CO` [Compound 389, N-(p-fluorobenzyl)-5-[1-(3-hydroxy-2-methylpropenyl)]-2′,2-bisthiazole-4-formamide], the CC50 at 72 h in “in vitro” came to 76.5 µM. In the data set on HCV (J399E), the pIC50 is 5.18 and the “SI (bioactivity selective index)” value is given as 11.6. Further, in the data set with HBV, the pIC50 was 4.52 and the “SI (bioactivity selective index)” value is on record as greater than 3.3. The CC50 at 6 days in data set [2] is greater than 100 µM.
As to `CC(C)C(O)c1sc(-c2nccs2)nc1C(=O)NCc1ccc(F)cc1` (stereo not shown) [Compound 391-1, N-(p-fluorobenzyl)-5-(1-hydroxy-2-methylpropyl)-2′,2-bisthiazole-4-formamide], the CC50 at 72 h in “in vitro” came to 48.6 µM. Further, the pIC50 is 4.99 in the data set with HCV (J399E) and 5.79 in the data set on HBV. In addition, the “SI (bioactivity selective index)” value amounted to 4.8 in the data set on HCV (J399E) and 20.9 in the data set with HBV. In addition, the CC50 at 6 days in data set [2] stood at 34 µM.
As for `CC(CO)Cc1sc(-c2nccs2)nc1C(=O)NCc1ccc(F)cc1` (stereo not shown) [Compound 391-3, N-(p-fluorobenzyl)-5-(3-hydroxy-2-methylpropyl)-2′,2-bisthiazole-4-formamide], in the data set “in vitro”, the CC50 at 72 h was determined as 28.1 µM. In the data set with HCV (J399E), the pIC50 was 5.00 and the “SI (bioactivity selective index)” value worked out at 2.8. Moreover, in the data set with HBV, the pIC50 is greater than 6.39 and the “SI (bioactivity selective index)” value is on record as greater than 243.9. Moreover, the CC50 at 6 days in data set [2] is greater than 100 µM.
With `C/C(=C\c1sc(-c2nccs2)nc1C(=O)NCc1ccc(F)cc1)CF` [Compound 391-F, N-(p-fluorobenzyl)-5-[1-(2-fluoromethylpropenyl)]-2′,2-bisthiazole-4-formamide], in “in vitro”, the CC50 at 72 h came out at 84.7 µM. Moreover, the pIC50 with HCV (J399E) is 5.19; in the data set on HBV it was 4.90. In addition, the “SI (bioactivity selective index)” value with HCV (J399E) is listed as 13.0; with HBV it was greater than 8. For the same compound, the CC50 at 6 days in data set [2] was greater than 100 µM.
Regarding `CC(C)C(F)c1sc(-c2nccs2)nc1C(=O)NCc1ccc(F)cc1` (stereo not shown) [Compound 393-1, N-(p-fluorobenzyl)-5-(1-fluoro-2-methylpropyl)-2′,2-bisthiazole-4-formamide], the CC50 at 72 h in “in vitro” stood at 40.9 µM. Besides, in the data set with HCV (J399E), the pIC50 was 5.13 and the “SI (bioactivity selective index)” value is on record as 5.5. Besides, in the data set with HBV, the pIC50 was greater than 6.39 and the “SI (bioactivity selective index)” value was greater than 81. Also, the CC50 at 6 days in data set [2] was greater than 33.3 µM.
`CC(C)(F)Cc1sc(-c2nccs2)nc1C(=O)NCc1ccc(F)cc1` [Compound 393-2, N-(p-fluorobenzyl)-5-(2-fluoro-2-methylpropyl)-2′,2-bisthiazole-4-formamide] showed a CC50 at 72 h in “in vitro” greater than 33.3 µM. Moreover, in the data set on HCV (J399E), the pIC50 is 5.82 and the “SI (bioactivity selective index)” value is recorded as greater than 22.2. In the data set on HBV, the pIC50 is 4.48 to 6.39 and the “SI (bioactivity selective index)” value is on record as less than 81. The CC50 at 6 days in data set [2] is greater than 33.3 µM.
In turn, `COC(c1sc(-c2nccs2)nc1C(=O)NCc1ccc(F)cc1)C(C)C` (stereo not shown) [Compound 405-1, N-(p-fluorobenzyl)-5-(1-methoxy-2-methylpropyl)-2′,2-bisthiazole-4-formamide] came in with a CC50 at 72 h in “in vitro” of 21.4 µM. Moreover, in the data set with HCV (J399E), the pIC50 was 5.43 and the “SI (bioactivity selective index)” value was 5.8. In the data set on HBV, the pIC50 is 5.59 and the “SI (bioactivity selective index)” value is given as greater than 12.8. Moreover, the CC50 at 6 days in data set [2] is greater than 33.3 µM.
Regarding `Nc1ccn([C@@H]2CS[C@H](CO)O2)c(=O)n1` [Lamivudine, reference compound], in the data set on HBV, the pIC50 is greater than 6.80 and the “SI (bioactivity selective index)” value is recorded as greater than 32. The CC50 at 6 days in data set [2] was greater than 5 µM.
Regarding `CC(C)=Cc1sc(-c2ncc(C)s2)nc1C(=O)NCc1ccc(F)cc1` [Me-373, N-(p-fluorobenzyl)-5′-methyl-5-[1-(2-methylpropenyl)]-2′,2-bisthiazole-4-formamide], in the data set “in vitro”, the CC50 at 72 h stood at 66.6 µM. In the data set with HCV (J399E), the pIC50 is 4.76 and the “SI (bioactivity selective index)” value stood at 3.8. In addition, in the data set with HBV, the pIC50 is 5.96 and the “SI (bioactivity selective index)” value was greater than 90.9. The CC50 at 6 days in data set [2] was greater than 100 µM.
`Cc1cnc(-c2nc(C(=O)NCc3ccc(F)cc3)c(C(O)C(C)C)s2)s1` (stereo not shown) [Me-391-1, N-(p-fluorobenzyl)-5′-methyl-5-(1-hydroxy-2-methylpropyl)-2′,2-bisthiazole-4-formamide]: in the data set “in vitro”, the CC50 at 72 h is greater than 33.3 µM. Moreover, the pIC50 with HCV (J399E) is 5.43; in the data set on HBV it was 5.54. In addition, the “SI (bioactivity selective index)” value with HCV (J399E) is listed as greater than 9; in the data set on HBV, greater than 11.5. In data set [2], the CC50 at 6 days was greater than 33.3 µM.
`Cc1cnc(-c2nc(C(=O)NCc3ccc(F)cc3)c(C(F)C(C)C)s2)s1` (stereo not shown) [Me-393-1, N-(p-fluorobenzyl)-5′-methyl-5-(1-fluoro-2-methylpropyl)-2′,2-bisthiazole-4-formamide] displayed a CC50 at 72 h in the data set “in vitro” greater than 100 µM. Moreover, in the data set on HCV (J399E), the pIC50 was 5.18 and the “SI (bioactivity selective index)” value was greater than 15.2. In the data set with HBV, the pIC50 was 6.70 and the “SI (bioactivity selective index)” value is on record as greater than 500. For the same compound, the CC50 at 6 days in data set [2] is greater than 100 µM.
`NC(=O)c1ncn([C@@H]2O[C@H](CO)[C@@H](O)[C@H]2O)n1` [Ribavirin, ribavirin, reference compound]: the CC50 at 72 h in the data set “in vitro” was greater than 200 µM. Further, in the data set with HCV (J399E), the pIC50 is 4.14 and the “SI (bioactivity selective index)” value is reported as greater than 2.8.
